Earlier results in patent publication US6770617B2, “Softener composition” (Kao Corporation, priority 2001, dated 2004).

Conditions: 1-octanol/water; actual value if there was one, otherwise Clog P calculated with CLOGP v4.01

| SMILES | log P |
| --- | --- |
| CCCCCOCC(O)CO (stereo not drawn) [(c-1), Pentyl glyceryl ether] | 0.54 |
| CCCOC(C)COC(C)CO (stereo not drawn) [(c-2), Dipropylene glycol monopropyl ether] | 0.99 |
| OCCOCCOCCOc1ccccc1 [(c-3), Triethylene glycol monophenyl ether] | 1.32 |
